Experiments:
DU-145 = assay: MTT assay of anti-tumor activity, DU-145; assay type: cell-based; settings: DU-145 cells
Experimental: (§1) The cells were digested and counted. The cell suspension was prepared in a concentration of 5×10^4 cells/ml. 100 μL of the cell suspension per well was added into 96-well plates (5×10^3 cells per well). The 96-well plates were placed in a 5% CO2 incubator at 37° C. for 24 hours. The drugs were diluted with the complete medium to the desired concentrations. 100 μL of the corresponding drug-containing medium was added into each well. Negative control group, vehicle control group and positive control group were set. The 96-well plates were placed in 5% CO2 incubator at 37° C. for 72 hours. The 96-well plates were subjected to a MTT assay, and measured OD value at λ=490 nm. The measurement procedure comprises adding 20 μL MTT (5 mg/ml) for each well, incubating for 4 hours in an incubator, discarding the medium, dissolving by adding 150 μL DMSO into each well, mixing uniformly by rocking gently for 10 minutes on a shaker, reading OD value of each well in a microplate reader at λ=490 nm. The inhibition rate was calculated, the results were recorded, and the anti-tumor activity was assessed.

HCT-116 = assay: MTT assay of anti-tumor activity, HCT-116; assay type: cell-based; settings: HCT-116 cells
Experimental: as §1

NCI-H460 = assay: MTT assay of anti-tumor activity, NCI-H460; assay type: cell-based; settings: NCI-H460 cells
Experimental: as §1

MCF-7 = assay: MTT assay of anti-tumor activity, MCF-7; assay type: cell-based
Experimental: as §1

K562 = assay: MTT assay of anti-tumor activity, K562; assay type: cell-based; settings: K562 cells
Experimental: as §1

tubulin = assay: Inhibitory activity on tubulin polymerization (kit BK011P, Cytoskeleton); assay type: biochemical; settings: 37° C., 60 minutes, fluorescence, Vmax
Experimental: The compounds were formulated into six different concentrations (0.03, 0.3, 0.9, 3, 9, 30 μM). The tubulin polymerization assay kit (Cat. # BK011P, Cytoskeleton) was used for testing. The samples were incubated at 37° C. for 60 minutes, and then fluorescence was collected using Gemini EM Fluorescence Microplate Reader collected at 410-460 nm. Vmax was calculated using SOFTMAX® PRO microplate data acquisition & analysis software. The tubulin inhibition (IC50) of the compound was calculated using GRAPHPAD PRISM® v5.01 graphing and statistics software.

[1] = Homo sapiens, MCF7, 72 h, MCF-7 cells

IC50 (DU-145; Homo sapiens, DU-145, 72 h)	IC50 (HCT-116; Homo sapiens, HCT-116, 72 h)	IC50 (NCI-H460; Homo sapiens, NCI-H460, 72 h)	IC50 (MCF-7; [1])	IC50 (K562; Homo sapiens, K562, 72 h)	IC50 (tubulin)	melting point	SMILES	further results
	40.5 nM	14.3 nM	46.3 nM	2.8 nM	490 nM		COc1cc(OC)cc(-c2nc[nH]c2-c2ccc(OC)c(O)c2)c1 [Compound C118, 4-(3,5-dimethoxyphenyl)-5-(3-hydroxy-4-methoxyphenyl)-imidazole]	
10.3 nM	460 nM	> 300 nM		7.6 nM	1570 nM		COc1cc(OC)cc(-c2ncn(CCO)c2-c2ccc(OC)c(F)c2)c1 [Compound C256, N-hydroxyethyl-4-(3,5-dimethoxyphenyl)-5-(3-fluoro-4-methoxyphenyl)imidazole]	
	25 nM	350 nM		23 nM			COc1cc(OC)cc(-c2nc[nH]c2-c2ccc(N(C)C)cc2)c1 [Compound C130, 4-(3,5-dimethoxyphenyl)-5-(4-dimethylaminophenyl)imidazole]	IC50 (NCI-H460; 72 hours): > 300 nM; IC50 (K562; 72 hours): 21.3 nM
					2350 nM	132.6 to 134 °C	COc1cc(OC)cc(-c2ncoc2-c2ccc(OC)c(N)c2N)c1 [Compound C121, 4-(3,5-dimethoxyphenyl)-5-(2,3-diamino-4-methoxyphenyl)oxazole]	
> 300 nM	289 nM		9.3 nM	6.1 nM			COc1cc(OC)cc(-c2nc[nH]c2-c2ccc(OC)c(N)c2O)c1 [Compound C146, 4-(3,5-dimethoxyphenyl)-5-(2-hydroxy-3-amino-4-methoxyphenyl)imidazole]	
130 nM	> 300 nM	10.2 nM	88.9 nM	8.5 nM		168.1 to 172.4 °C	COc1cc(OC)cc(-c2ncoc2-c2ccc(OC)c(O)c2F)c1 [Compound C117, 4-(3,5-dimethoxyphenyl)-5-(2-fluoro-3-hydroxy-4-methoxyphenyl)oxazole]	
	34 nM	> 300 nM	10.2 nM	6.8 nM			COc1cc(OC)cc(-c2nc[nH]c2-c2ccc(OC(F)(F)F)c(N)c2)c1 [Compound C152, 4-(3,5-dimethoxyphenyl)-5-(3-amino-4-trifluoromethoxyphenyl)imidazole]	
> 300 nM	> 300 nM		1.2 nM	7.2 nM	660 nM	149.9 to 151.6 °C	CNc1ccc(-c2ocnc2-c2cc(OC)cc(OC)c2)cc1O [Compound C123, 4-(3,5-dimethoxyphenyl)-5-(3-hydroxy-4-methylaminophenyl)oxazole]	IC50 (HCT-116; 72 hours): 189 nM

The next lines start with the compound.

SMILES	IC50 (DU-145; Homo sapiens, DU-145, 72 h)	IC50 (HCT-116; Homo sapiens, HCT-116, 72 h)	IC50 (NCI-H460; Homo sapiens, NCI-H460, 72 h)	IC50 (MCF-7; [1])	IC50 (K562; Homo sapiens, K562, 72 h)	IC50 (tubulin)	melting point	further results
COc1cc(OC)cc(-c2ncoc2-c2ccc(OC(F)(F)F)c(O)c2)c1 [Compound C142, 4-(3,5-dimethoxyphenyl)-5-(3-hydroxy-4-trifluoromethoxyphenyl)oxazole]	4.1 nM	416 nM	62 nM	11.3 nM	4.2 nM			
CNc1ccc(-c2ocnc2-c2cc(OC)cc(OC)c2)cc1F [Compound C264, 4-(3,5-dimethoxyphenyl)-5-(3-fluoro-4-methylaminophenyl)oxazole]						860 nM		
COc1cc(OC)cc(-c2ncn(C)c2-c2scc3c2OCCO3)c1 [Compound C238, N-methyl-4-(3,5-dimethoxyphenyl)-5-[(3,4-ethylenedioxyl)thienyl]imidazole]								IC50 (DU-145; 72 hours): 150 nM; IC50 (HCT-116; 72 hours): 230 nM; IC50 (NCI-H460; 72 hours): > 300 nM; IC50 (MCF-7; MCF-7 cells, 72 hours): 6.1 nM; IC50 (K562; 72 hours): 11.2 nM
COc1cc(OC)cc(-c2nc[nH]c2-c2ccc(OC)c(O)c2N)c1 [Compound C147, 4-(3,5-dimethoxyphenyl)-5-(2-amino-3-hydroxy-4-methoxyphenyl)imidazole]	123 nM	> 300 nM	89.3 nM	8.9 nM	7.6 nM			
COc1ccc(/C=C\c2cc(OC)c(OC)c(OC)c2)cc1O [CA4, cis-1-(3,4,5-trimethoxyphenyl)-2-(3′-hydroxy-4′-methoxyphenyl)ethylene, reference compound]	7.2 nM	43 nM	5.6 nM	5.5 nM	5.2 nM	[…]		
COc1cc(OC)cc(-c2ncoc2-c2ccc(OC)c(O)c2O)c1 [Compound C116, 4-(3,5-dimethoxyphenyl)-5-(2,3-dihydroxy-4-methoxyphenyl)oxazole]						530 nM	178.6 to 180.4 °C	
COc1cc(-c2ncn(-c3cc(OC)c(OC)c(OC)c3)c2-c2ccc(N(C)C)cc2)cc(OC)c1OC [Compound C106, 5-(4-dimethylaminophenyl)-4-(3,4,5-trimethoxyphenyl)-1-(3,4,5-trimethoxyphenyl)imidazole]	92.3 nM	136 nM	> 300 nM	7.3 nM	3.2 nM		168.8 to 170.9 °C	
COc1cc(-c2ncn(CCO)c2-c2ccc(N(CCCl)CCCl)cc2)cc(OC)c1OC [Compound C248]								IC50 (DU-145; 72 hours): > 300 nM; IC50 (HCT-116; 72 hours): 312 nM; IC50 (NCI-H460; 72 hours): 10.3 nM; IC50 (MCF-7; MCF-7 cells, 72 hours): 6.9 nM; IC50 (K562; 72 hours): 11.2 nM
COc1ccc(-c2c(-c3cc(OC)c(OC)c(OC)c3)ncn2-c2ccccc2)cc1O [Compound C087, 5-(3-hydroxy-4-methoxyphenyl)-4-(3,4,5-trimethoxyphenyl)-1-phenylimidazole]							176 to 177 °C	IC50 (DU-145; Homo sapiens, 72 hours): > 300 nM; IC50 (HCT-116; Homo sapiens, 72 hours): 77 nM; IC50 (NCI-H460; Homo sapiens, 72 hours): 153 nM; IC50 (MCF-7; Homo sapiens, MCF7, MCF-7 cells, 72 hours): 6.2 nM; IC50 (K562; Homo sapiens, 72 hours): 4.6 nM
COc1cc(OC)cc(-c2ncn(C)c2-c2ccc(OC(F)(F)F)c(N)c2)c1 [Compound C132, 4-(3,5-dimethoxyphenyl)-5-(3-amino-4-trifluoromethoxyphenyl)-1-methylimidazole]	> 300 nM	52 nM	90.1 nM	7.8 nM	4.5 nM			
COc1ccc(-c2c(-c3cc(OC)c(OC)c(OC)c3)ncn2-c2cc(OC)c(OC)c(OC)c2)cc1O [Compound C105, 5-(3-hydroxy-4-methoxyphenyl)-4-(3,4,5-trimethoxyphenyl)-1-(3,4,5-trimethoxyphenyl)imidazole]		151 nM	21 nM	21 nM	8.9 nM			
COc1cc(OC)cc(-c2ncoc2-c2ccc3c(c2)NC(=O)CO3)c1 [Compound C253, 4-(3,5-dimethoxyphenyl)-5-[6-(3-oxobenzomorpholiny)]oxazole]								IC50 (DU-145; 72 hours): 76.2 nM; IC50 (HCT-116; 72 hours): 121 nM; IC50 (NCI-H460; 72 hours): 26.4 nM; IC50 (MCF-7; MCF-7 cells, 72 hours): 6.4 nM; IC50 (K562; 72 hours): 310 nM
COc1cc(OC)cc(-c2ncn(C)c2-c2ccc(OC(F)F)c(N)c2)c1 [Compound C135, 4-(3,5-dimethoxyphenyl)-5-(3-amino-4-difluoromethoxyphenyl)-1-methylimidazole]	161 nM	68 nM	76.3 nM	5.6 nM	6.9 nM		99.2 to 101.3 °C	
COc1cc(OC)cc(-c2nc[nH]c2-c2ccc(OC)c(N)c2)c1 [Compound C129, 4-(3,5-dimethoxyphenyl)-5-(3-amino-4-methoxyphenyl)imidazole]						660 nM		

Source: US9139574B2, “Tumor targeted drug combretastatin A4 derivative” (Nanjing Sanhome Pharmaceutical Co., Ltd., priority 2011, dated 2015)
